Drawing on patent US7101878B1 (Agouron Pharmaceuticals, Inc., priority 1998, dated 2006), this text covers inhibition for 55 compounds.

The first test has as its target T1, human GnRH receptor (Homo sapiens, UniProt P30968).
T1 construct: expressed in transfected cells; host or cells: HEK 293 (hGnRH-R/293, from Dr. Stuart Sealfon)
T1 sequence (P30968 1-328): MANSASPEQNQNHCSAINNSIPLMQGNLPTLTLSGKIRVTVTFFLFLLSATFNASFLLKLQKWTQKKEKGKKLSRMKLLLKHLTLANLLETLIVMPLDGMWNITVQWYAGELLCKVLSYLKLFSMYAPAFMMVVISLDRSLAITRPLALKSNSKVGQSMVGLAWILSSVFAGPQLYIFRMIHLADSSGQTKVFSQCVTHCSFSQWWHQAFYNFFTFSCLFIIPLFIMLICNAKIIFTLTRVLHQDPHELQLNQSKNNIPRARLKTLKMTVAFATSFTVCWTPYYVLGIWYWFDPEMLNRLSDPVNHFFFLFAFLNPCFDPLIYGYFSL
As to the kind of experiment: Radioligand binding, 125I-GnRH-A displacement, membranes of HEK 293 cells with human GnRH receptor. The settings on record: 1 uM; read-out: % Inhib. @ 1 uM hGnRH. The method in brief: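 After filtration and PBS washes, bound radioactivity was counted by scintillation and IC50 derived. Identical conditions applied for non-human receptors.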
`COc1ccc(CNC(=O)c2ccc(Cc3cc4c(cc3C)C(C)(C)CCC4(C)C)o2)c(OC)c1` [drawing 1224]: the inhibition at 1 µM came out at 94%.
The same measure, in the same setting: for `Cc1cc2c(cc1Cc1ccc(C(=O)NCc3cccc([N+](=O)[O-])c3)o1)C(C)(C)CCC2(C)C` [drawing 1231] the value was 75%.
With `Cc1cc2c(cc1Cc1ccc(C(=O)NC(C#N)c3ccccc3)o1)C(C)(C)CCC2(C)C` (stereo not shown) [drawing 1233], the inhibition at 1 µM was determined as 43%.
Regarding `Cc1cc2c(cc1Cc1ccc(C(=O)NCc3ccc(Br)cc3)o1)C(C)(C)CCC2(C)C` [drawing 1234], the inhibition at 1 µM is 49%.
Same read-out and setting: for `Cc1cc2c(cc1Cc1ccc(C(=O)NCc3cccc(Br)c3)o1)C(C)(C)CCC2(C)C` [drawing 1235] the value was 62%; for `Cc1cc2c(cc1Cc1ccc(C(=O)NC(C)c3ccc([N+](=O)[O-])cc3)o1)C(C)(C)CCC2(C)C` (stereo not shown) [drawing 1238], 41%.

The same test, now with this note: 1 h, repeat of % Inhib. at 1 uM; read-out: Repeats @ 1 uM hGnRH.
As for `COc1ccc(CNC(=O)c2ccc(Cc3cc4c(cc3C)C(C)(C)CCC4(C)C)o2)c(OC)c1` [drawing 1224], the inhibition at 1 µM turned out to be 96%.
The same measure, in the same setting: as for `Cc1cc2c(cc1Cc1ccc(C(=O)NCc3cccc([N+](=O)[O-])c3)o1)C(C)(C)CCC2(C)C` [drawing 1231], the figure is 77%.
The same measure, in the same setting: for `Cc1cc2c(cc1Cc1ccc(C(=O)NC(C#N)c3ccccc3)o1)C(C)(C)CCC2(C)C` (stereo not shown) [drawing 1233] the value was 48%; for `Cc1cc2c(cc1Cc1ccc(C(=O)NCc3ccc(Br)cc3)o1)C(C)(C)CCC2(C)C` [drawing 1234], 52%.
For `Cc1cc2c(cc1Cc1ccc(C(=O)NCc3cccc(Br)c3)o1)C(C)(C)CCC2(C)C` [drawing 1235], the inhibition at 1 µM was 68%.
Still for that read-out and setting: as for `Cc1cc2c(cc1Cc1ccc(C(=O)NC(C)c3ccc([N+](=O)[O-])cc3)o1)C(C)(C)CCC2(C)C` (stereo not shown) [drawing 1238], the figure is 44%.

The next test concerns the target T2, mouse GnRH receptor (Mus musculus, UniProt Q01776).
T2 construct: expressed in transfected cells; host or cells: 293 cells
T2 sequence (Q01776 1-327): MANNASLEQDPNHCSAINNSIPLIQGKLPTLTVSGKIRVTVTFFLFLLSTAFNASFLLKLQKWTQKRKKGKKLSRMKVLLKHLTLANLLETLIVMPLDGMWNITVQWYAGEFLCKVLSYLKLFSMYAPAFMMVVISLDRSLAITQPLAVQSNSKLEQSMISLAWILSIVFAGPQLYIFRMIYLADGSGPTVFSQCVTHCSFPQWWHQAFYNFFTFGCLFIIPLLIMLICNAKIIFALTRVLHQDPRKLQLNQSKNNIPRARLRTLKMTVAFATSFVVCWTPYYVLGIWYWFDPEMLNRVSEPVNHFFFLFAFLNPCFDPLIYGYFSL
As to the kind of experiment: Radioligand binding, 125I-GnRH-A, 293 cells expressing mouse GnRH receptors. The settings on record: 10 uM; read-out: % Inhib. @ 10 uM mGnRH. As to the method:
All compounds were diluted in 1% DMSO (final assay concentration) in binding assay buffer. […] Reactions were terminated by rapid filtration onto 96-well Packard GF/C filters soaked in 0.1% polyethyleneimine. Filters were washed three times with PBS buffer, dried and counted on a Packard Topcount by liquid scintillation counting.
Assay conditions were identical for assessing compound activities at other species. […] IC50 values for control peptides and test compounds were calculated utilizing GraphPad Prism™ software.
The reaction mixture was vortexed and incubated for 1 min at room temperature. After one min, the mixture was vortexed and allowed to incubate for an additional minute. 2 ml of 0.5 M acetic acid/1% BSA was added to the reaction tube and the mixture was added to a C18 Sep-Pak cartridge. The cartridge was washed with subsequent washes of 5 ml H2O and 5 ml 0.5M acetic acid and then eluted with 5×1 ml of 60% CH3CN/40% 0.5M acetic acid. The eluate was diluted with 3× volume of HPLC buffer A (0.1% TFA in H2O) and loaded onto a C18 column. […] The radioactive fractions (750 ed/fraction) are collected into clean polypropylene tubes containing 100 μl of 10% BSA. Fractions were assessed for biological activity by radioligand binding.
For `Cc1cc2c(cc1Cc1ccc(C(=O)NCCCN(C)C)o1)C(C)(C)CCC2(C)C`, the inhibition at 10 µM was 99%.
`Cc1cc2c(cc1Cc1ccc(C(=O)N3CCC[C@H]3CO)o1)C(C)(C)CCC2(C)C`: the inhibition at 10 µM was found to be 93%.
Same read-out and setting: for `Cc1cc2c(cc1Cc1ccc(C(=O)N3CCN(Cc4ccc5c(c4)OCO5)CC3)o1)C(C)(C)CCC2(C)C` the value was 66%; for `CCN1CCCC1CNC(=O)c1ccc(Cc2cc3c(cc2C)C(C)(C)CCC3(C)C)o1` (stereo not shown), 96%.
Same read-out and setting: for `Cc1cc2c(cc1Cc1ccc(C(=O)N3CCN(Cc4ccccc4)CC3)o1)C(C)(C)CCC2(C)C` the value was 83%; for `Cc1cc2c(cc1Cc1ccc(C(=O)N3CCN(CC(=O)NC(C)C)CC3)o1)C(C)(C)CCC2(C)C`, 63%.
Still for that read-out and setting: for `C=CCN(C(=O)c1ccc(Cc2cc3c(cc2C)C(C)(C)CCC3(C)C)o1)C1CCCCC1` the value was 65%; for `Cc1cc2c(cc1Cc1ccc(C(=O)N3CCCC4CCCCC43)o1)C(C)(C)CCC2(C)C` (stereo not shown), 94%.
For the compound `CCN(CC)C(=O)C1CCCN(C(=O)c2ccc(Cc3cc4c(cc3C)C(C)(C)CCC4(C)C)o2)C1` (stereo not shown), the inhibition at 10 µM was 21%.
Same read-out and setting: as for `Cc1cc2c(cc1Cc1ccc(C(=O)N3CCCCC3CO)o1)C(C)(C)CCC2(C)C` (stereo not shown), the figure is 84%; as for `Cc1cc2c(cc1Cc1ccc(C(=O)N3CCCCC3CCO)o1)C(C)(C)CCC2(C)C` (stereo not shown), 100%; as for `Cc1cc2c(cc1Cc1ccc(C(=O)N3CCN(CCCO)CC3)o1)C(C)(C)CCC2(C)C`, 66%.
Same read-out and setting: for `Cc1cc2c(cc1Cc1ccc(C(=O)N(CCCCO)Cc3ccccc3)o1)C(C)(C)CCC2(C)C` the value was 99%; for `Cc1cc2c(cc1Cc1ccc(C(=O)N3Cc4ccccc4CC3C(=O)NCC(c3ccccc3)c3ccccc3)o1)C(C)(C)CCC2(C)C` (stereo not shown), 9%; for `Cc1cc2c(cc1Cc1ccc(C(=O)N3CCN(C/C=C/c4ccccc4)CC3)o1)C(C)(C)CCC2(C)C`, 86%.
Turning to `Cc1cc2c(cc1Cc1ccc(C(=O)N[C@H]3CC[C@@H](O)CC3)o1)C(C)(C)CCC2(C)C`, the inhibition at 10 µM is 82%.
The same measure, in the same setting: as for `CC(=O)NC1CCN(C(=O)c2ccc(Cc3cc4c(cc3C)C(C)(C)CCC4(C)C)o2)C1` (stereo not shown), the figure is 63%.
The same measure, in the same setting: as for `Cc1cc2c(cc1Cc1ccc(C(=O)NCC(O)CO)o1)C(C)(C)CCC2(C)C` (stereo not shown), the figure is 14%; as for `CCN1CC(NC(=O)c2ccc(Cc3cc4c(cc3C)C(C)(C)CCC4(C)C)o2)CN1CC`, 91%; as for `CCCN(CC1CC1)C(=O)c1ccc(Cc2cc3c(cc2C)C(C)(C)CCC3(C)C)o1`, 96%.
As for `CCOC(=O)CN1CCN(C(=O)c2ccc(Cc3cc4c(cc3C)C(C)(C)CCC4(C)C)o2)CC1`, the inhibition at 10 µM was 66%.
Still for that read-out and setting: for `Cc1cc2c(cc1Cc1ccc(C(=O)N(C)C3CCN(C)C3)o1)C(C)(C)CCC2(C)C` (stereo not shown) the value was 89%.
Same read-out and setting: as for `COc1ccc(N2CCN(C(=O)c3ccc(Cc4cc5c(cc4C)C(C)(C)CCC5(C)C)o3)CC2C)cc1` (stereo not shown), the figure is 73%; as for `Cc1cc2c(cc1Cc1ccc(C(=O)N3CCCC3CNc3ccccc3)o1)C(C)(C)CCC2(C)C` (stereo not shown), 53%; as for `Cc1cc2c(cc1Cc1ccc(C(=O)NC(C)c3cccc4ccccc34)o1)C(C)(C)CCC2(C)C` (stereo not shown), 28%.
On the same count and under the same terms, for `C#CCN(C)C(=O)c1ccc(Cc2cc3c(cc2C)C(C)(C)CCC3(C)C)o1` the value was 83%.
`Cc1cc2c(cc1Cc1ccc(C(=O)N3CCC(c4cccc(C(F)(F)F)c4)C(O)C3)o1)C(C)(C)CCC2(C)C` (stereo not shown): the inhibition at 10 µM came to 35%.
Consider `Cc1cc2c(cc1Cc1ccc(C(=O)N3CCN(c4ccccc4O)CC3)o1)C(C)(C)CCC2(C)C`, for which the inhibition at 10 µM was 36%.
Same read-out and setting: as for `Cc1cc2c(cc1Cc1ccc(C(=O)N(CCC#N)Cc3ccccc3)o1)C(C)(C)CCC2(C)C`, the figure is 74%; as for `Cc1cc2c(cc1Cc1ccc(C(=O)N(CCC(c3ccccc3)c3ccccc3)C(C)c3ccccc3)o1)C(C)(C)CCC2(C)C` (stereo not shown), 30%; as for `Cc1cc2c(cc1Cc1ccc(C(=O)NCCc3ccc(OCc4ccccc4)c(OCc4ccccc4)c3)o1)C(C)(C)CCC2(C)C`, 20%.
Regarding `Cc1cc2c(cc1Cc1ccc(C(=O)N(C)CCCC34c5ccccc5[C@@H]5CCC53c3ccccc34)o1)C(C)(C)CCC2(C)C` (stereo partly shown), the inhibition at 10 µM amounted to 14%.
Still for that read-out and setting: for `Cc1cc2c(cc1Cc1ccc(C(=O)N(Cc3c[nH]c4ccccc34)C3CCCCC3)o1)C(C)(C)CCC2(C)C` the value was 27%; for `COc1cc2c(cc1OC)C(c1ccccc1)N(C(=O)c1ccc(Cc3cc4c(cc3C)C(C)(C)CCC4(C)C)o1)CC2` (stereo not shown), 29%.
Same read-out and setting: as for `Cc1cc2c(cc1Cc1ccc(C(=O)N3CC4(C)CC3CC(C)(C)C4)o1)C(C)(C)CCC2(C)C` (stereo not shown), the figure is 100%; as for `Cc1cc2c(cc1Cc1ccc(C(=O)N3CC=C(n4c(=O)[nH]c5ccccc54)CC3)o1)C(C)(C)CCC2(C)C`, 85%.
Take `Cc1cc2c(cc1Cc1ccc(C(=O)NC3C4CC5CC6CC(C5)C643)o1)C(C)(C)CCC2(C)C` (stereo not shown): the inhibition at 10 µM was 37%.
Same read-out and setting: as for `Cc1cc2c(cc1Cc1ccc(C(=O)N3CCC[C@@H]3C(=O)NC(c3ccccc3)c3ccccc3)o1)C(C)(C)CCC2(C)C`, the figure is 58%; as for `Cc1cc2c(cc1Cc1ccc(C(=O)NCCC(C)C)o1)C(C)(C)CCC2(C)C`, 88%.
Same read-out and setting: as for `Cc1cc2c(cc1Cc1ccc(C(=O)N[C@H](C)c3ccccc3)o1)C(C)(C)CCC2(C)C`, the figure is 72%.
Still for that read-out and setting: for `Cc1cc2c(cc1Cc1ccc(C(=O)N3CCC[C@@H]3C(=O)OCc3ccccc3)o1)C(C)(C)CCC2(C)C` the value was 86%.
As for `Cc1cc2c(cc1Cc1ccc(C(=O)N(C)CC(O)c3ccc(O)cc3)o1)C(C)(C)CCC2(C)C` (stereo not shown), the inhibition at 10 µM was 34%.
For `COc1ccccc1CN(CCC(c1ccccc1)c1ccccc1)C(=O)c1ccc(Cc2cc3c(cc2C)C(C)(C)CCC3(C)C)o1`, the inhibition at 10 µM worked out at 21%.
On the same count and under the same terms, as for `Cc1cc2c(cc1Cc1ccc(C(=O)N(CCC(c3ccccc3)c3ccccc3)Cc3ccc4c(c3)OCO4)o1)C(C)(C)CCC2(C)C`, the figure is 25%.
In the case of `Cc1cc2c(cc1Cc1ccc(C(=O)N(CCC(c3ccccc3)c3ccccc3)CC3CCCCC3)o1)C(C)(C)CCC2(C)C`, the inhibition at 10 µM came to 31%.
Consider `Cc1cc2c(cc1Cc1ccc(C(=O)N(Cc3ccc(O)cc3)C3CCN(Cc4ccccc4)CC3)o1)C(C)(C)CCC2(C)C`, for which the inhibition at 10 µM was 28%.
Still for that read-out and setting: as for `COC(=O)C1SCCN1C(=O)c1ccc(Cc2cc3c(cc2C)C(C)(C)CCC3(C)C)o1` (stereo not shown), the figure is 39%; as for `Cc1cc2c(cc1Cc1ccc(C(=O)N[C@H](C)c3ccc([N+](=O)[O-])cc3)o1)C(C)(C)CCC2(C)C`, 44%; as for `Cc1cc2c(cc1Cc1ccc(C(=O)NC(C)(C)CNC(=O)C(F)(F)F)o1)C(C)(C)CCC2(C)C`, 37%.
